Assay results taken from US11498899B2, “Nitrone herbicides” (FMC Corporation, priority 2016, dated 2022).

Key:
[1] = tested on: barnyardgrass (Echinochloa crus-galli); test: Test A preemergence, visual injury rating 0-100 (0 no effect, 100 complete control); format: in vivo; conditions: for Barnyardgrass plant response rating (0 to 100 scale): 125 g ai/ha; for Barnyardgrass plant response rating: 500 g ai/ha, 0 to 100 scale
[2] = tested on: foxtail, green (green foxtail, Setaria viridis); test: Test A preemergence, visual injury rating 0-100; format: in vivo
kochia (Kochia scoparia) [3] = test: Test A preemergence, visual injury rating 0-100; format: in vivo
[4] = tested on: pigweed (Amaranthus retroflexus); test: Test A preemergence, visual injury rating 0-100; format: in vivo
[5] = tested on: ragweed (common ragweed, Ambrosia elatior); test: Test A preemergence, visual injury rating 0-100; format: in vivo
[6] = tested on: ryegrass, Italian (Italian ryegrass, Lolium multiflorum); test: Test A preemergence, visual injury rating 0-100; format: in vivo
[7] = tested on: barnyardgrass (Echinochloa crus-galli); test: Test A postemergence, visual injury rating 0-100; format: in vivo; conditions: 0 to 100 scale
[8] = tested on: blackgrass (Alopecurus myosuroides); test: Test A postemergence, visual injury rating 0-100; format: in vivo; conditions: 0 to 100 scale
corn (Zea mays) = test: Test A postemergence, visual injury rating 0-100; format: in vivo; conditions: 0 to 100 scale
[9] = tested on: foxtail, green (green foxtail, Setaria viridis); test: Test A postemergence, visual injury rating 0-100; format: in vivo; conditions: 0 to 100 scale
kochia (Kochia scoparia) [10] = test: Test A postemergence, visual injury rating 0-100; format: in vivo; conditions: 0 to 100 scale
[11] = tested on: pigweed (Amaranthus retroflexus); test: Test A postemergence, visual injury rating 0-100; format: in vivo; conditions: 0 to 100 scale
[12] = tested on: ragweed (common ragweed, Ambrosia elatior); test: Test A postemergence, visual injury rating 0-100; format: in vivo; conditions: 0 to 100 scale
[13] = tested on: ryegrass, Italian (Italian ryegrass, Lolium multiflorum); test: Test A postemergence, visual injury rating 0-100; format: in vivo; conditions: 0 to 100 scale
[14] = tested on: wheat (Triticum aestivum); test: Test A postemergence, visual injury rating 0-100; format: in vivo; conditions: 0 to 100 scale
[15] = tested on: ducksalad (Heteranthera limosa); test: Test B flooded paddy test, visual rating 0-100; conditions: Flood, 250 g ai/ha, applied to paddy water, rated after 13 to 15 days
[16] = tested on: barnyardgrass (Echinochloa crus-galli); test: Test B flooded paddy test, visual rating 0-100; conditions: Flood, 250 g ai/ha, applied to paddy water, rated after 13 to 15 days
rice (Oryza sativa) = test: Test B flooded paddy test, visual rating 0-100 (0 no effect, 100 complete control); conditions: Flood, 250 g ai/ha, applied to paddy water, rated after 13 to 15 days

| Structure (SMILES) | Barnyardgrass plant response rating (0 to 100 scale) [1] | Barnyardgrass plant response rating [1] | Foxtail, Green plant response rating (0 to 100 scale) ([2]; 125 g ai/ha) | Kochia plant response rating (0 to 100 scale) (kochia (Kochia scoparia) [3]; 125 g ai/ha) | Pigweed plant response rating (0 to 100 scale) ([4]; 125 g ai/ha) | Ragweed plant response rating (0 to 100 scale) ([5]; 125 g ai/ha) | Ryegrass, Italian plant response rating (0 to 100 scale) ([6]; 125 g ai/ha) | Barnyardgrass plant response rating ([7]; 125 g ai/ha) | Barnyardgrass plant response rating ([7]; 500 g ai/ha) | Blackgrass plant response rating ([8]; 125 g ai/ha) | Blackgrass plant response rating ([8]; 500 g ai/ha) | Corn plant response rating (corn (Zea mays); 125 g ai/ha) | Corn plant response rating (corn (Zea mays); 500 g ai/ha) | Foxtail, Green plant response rating ([9]; 125 g ai/ha) | Foxtail, Green plant response rating ([9]; 500 g ai/ha) | Kochia plant response rating (kochia (Kochia scoparia) [10]; 125 g ai/ha) | Kochia plant response rating (kochia (Kochia scoparia) [10]; 500 g ai/ha) | Pigweed plant response rating ([11]; 125 g ai/ha) | Pigweed plant response rating ([11]; 500 g ai/ha) | Ragweed plant response rating ([12]; 125 g ai/ha) | other results |
| --- | --- | --- | --- | --- | --- | --- | --- | --- | --- | --- | --- | --- | --- | --- | --- | --- | --- | --- | --- | --- | --- |
| CC1=[N+]([O-])C(C(=O)Nc2cccc(F)c2F)C(c2ccc(C)c(C)c2)C1 (racemic) [Compound 24] | 90 | 90 | 90 | 40 | 20 | 60 | 40 | 90 | 90 | 20 | 60 | 50 | 90 | 80 | 90 | 50 | 70 | 30 | 60 | 20 | Foxtail, Green plant response rating ([2]; 500 g ai/ha, 0 to 100 scale): 90; Kochia plant response rating (kochia (Kochia scoparia) [3]; 500 g ai/ha, 0 to 100 scale): 90; Pigweed plant response rating ([4]; 500 g ai/ha, 0 to 100 scale): 50; Ragweed plant response rating ([5]; 500 g ai/ha, 0 to 100 scale): 80; Ryegrass, Italian plant response rating ([6]; 500 g ai/ha, 0 to 100 scale): 70; Ragweed plant response rating ([12]; 500 g ai/ha): 50; Ryegrass, Italian plant response rating ([13]; 125 g ai/ha): 90; Ryegrass, Italian plant response rating ([13]; 500 g ai/ha): 80; Wheat plant response rating ([14]; 125 g ai/ha): 50; Wheat plant response rating ([14]; 500 g ai/ha): 90; Ducksalad plant response rating (0 to 100 scale) [15]: 85; Barnyardgrass plant response rating (0 to 100 scale) [16]: 70; Rice plant response rating (0 to 100 scale) (rice (Oryza sativa)): 0 |
| CC1=[N+]([O-])C(C(=O)Nc2cccc(F)c2Cl)C(c2ccc(C(F)(F)F)cc2)C1 (racemic) [Compound 31] | 50 | 100 | 90 | 0 | 0 | 0 | 0 | 30 | 90 | 20 | 80 | 0 | 10 | 40 | 90 | 0 | 10 | 0 | 30 | 0 | Foxtail, Green plant response rating (0 to 100 scale) ([2]; 500 g ai/ha): 100; Kochia plant response rating (0 to 100 scale) (kochia (Kochia scoparia) [3]; 500 g ai/ha): 80; Pigweed plant response rating (0 to 100 scale) ([4]; 500 g ai/ha): 60; Ragweed plant response rating (0 to 100 scale) ([5]; 500 g ai/ha): 90; Ryegrass, Italian plant response rating (0 to 100 scale) ([6]; 500 g ai/ha): 20; Ragweed plant response rating ([12]; 500 g ai/ha): 20; Ryegrass, Italian plant response rating ([13]; 125 g ai/ha): 20; Ryegrass, Italian plant response rating ([13]; 500 g ai/ha): 20; Wheat plant response rating ([14]; 125 g ai/ha): 0; Wheat plant response rating ([14]; 500 g ai/ha): 40; Ducksalad plant response rating (0 to 100 scale) [15]: 0; Barnyardgrass plant response rating (0 to 100 scale) [16]: 0; Rice plant response rating (0 to 100 scale) (rice (Oryza sativa)): 0 |
| CC1=[N+]([O-])C(C(=O)Nc2cccc(F)c2C#N)C(c2ccc(C(F)(F)F)cc2)C1 (racemic) [Compound 34] | 80 | 100 | 40 | 0 | 0 | 50 | 0 | 30 | 70 | 40 | 80 | 0 | 0 | 0 | 80 | 0 | 30 | 30 | 70 | 0 | Foxtail, Green plant response rating (0 to 100 scale) ([2]; 500 g ai/ha): 100; Kochia plant response rating (0 to 100 scale) (kochia (Kochia scoparia) [3]; 500 g ai/ha): 90; Pigweed plant response rating (0 to 100 scale) ([4]; 500 g ai/ha): 90; Ragweed plant response rating (0 to 100 scale) ([5]; 500 g ai/ha): 100; Ryegrass, Italian plant response rating (0 to 100 scale) ([6]; 500 g ai/ha): 0; Ragweed plant response rating ([12]; 500 g ai/ha): 50; Ryegrass, Italian plant response rating ([13]; 125 g ai/ha): 0; Ryegrass, Italian plant response rating ([13]; 500 g ai/ha): 30; Wheat plant response rating ([14]; 125 g ai/ha): 0; Wheat plant response rating ([14]; 500 g ai/ha): 50; Ducksalad plant response rating (0 to 100 scale) [15]: 50; Barnyardgrass plant response rating (0 to 100 scale) [16]: 35; Rice plant response rating (0 to 100 scale) (rice (Oryza sativa)): 0 |
